Consider 34 compounds from patent US9556201B2, “Bicyclic pyridines and analogs as sirtuin modulators” (GLAXOSMITHKLINE LLC, priority 2009, dated 2017).

One experiment concerns TNF. In words: TNF IC50 (column of Table 1; method not shown). The class given is cell-based.
The target of a further experiment is T1, SIRT1 (Homo sapiens, UniProt Q96EB6).
T1 sequence (Q96EB6 1-747): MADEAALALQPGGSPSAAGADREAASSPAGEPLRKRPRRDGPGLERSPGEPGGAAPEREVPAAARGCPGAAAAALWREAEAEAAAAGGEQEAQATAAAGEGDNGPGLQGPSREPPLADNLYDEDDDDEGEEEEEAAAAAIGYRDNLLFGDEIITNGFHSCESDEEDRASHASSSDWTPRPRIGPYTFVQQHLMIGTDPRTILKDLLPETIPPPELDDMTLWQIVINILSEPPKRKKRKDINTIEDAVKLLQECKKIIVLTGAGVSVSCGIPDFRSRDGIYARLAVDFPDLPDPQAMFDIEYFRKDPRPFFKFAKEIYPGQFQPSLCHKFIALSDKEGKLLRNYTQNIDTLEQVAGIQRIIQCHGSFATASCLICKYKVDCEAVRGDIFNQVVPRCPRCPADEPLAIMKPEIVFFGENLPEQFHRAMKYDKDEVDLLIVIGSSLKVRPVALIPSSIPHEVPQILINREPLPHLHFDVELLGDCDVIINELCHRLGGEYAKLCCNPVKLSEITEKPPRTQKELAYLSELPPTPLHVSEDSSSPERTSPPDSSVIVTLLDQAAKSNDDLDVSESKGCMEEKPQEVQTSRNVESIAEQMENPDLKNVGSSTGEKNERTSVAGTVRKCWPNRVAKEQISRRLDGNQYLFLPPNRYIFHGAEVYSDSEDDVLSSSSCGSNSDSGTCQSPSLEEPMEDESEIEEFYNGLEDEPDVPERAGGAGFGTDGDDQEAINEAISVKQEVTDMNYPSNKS
In words: Mass spectrometry based assay to identify modulators of SIRT1 activity (deacetylation of p53-based acetylated peptide substrate). The settings on record: SIRT1 activation; for Emax: 25 min, read-out: % FOLD ACT. (percent maximum fold activation). The class given is biochemical. The method in brief: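 His-tagged human SIRT1 (10 nM, E. coli) incubated 25 min at 25 °C with […] p53-derived acetylated 5TMR peptide and 120 μM βNAD+ in pH 8 Tris-acetate buffer, then formic acid-stopped. Mass spectrometry quantifies acetylated vs deacetylated peptide; nicotinamide and DMSO controls.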

As for `O=C(Nc1ccnc(N2CCC2)c1)N1CCOc2ccc(-c3cccc(F)c3)nc21` [Compound 519], the IC50 in the experiment on TNF is less than 20 µM. Besides, at SIRT1, the Emax was more than 200% and the EC1.5 entry is given as “A (EC1.5<1.0 μM)”.
Taken in the same sequence, the figures for `O=C(Nc1ccnc(OCC(O)CO)n1)N1CCCc2ccc(-c3cccc(C(F)(F)F)c3)nc21` (stereo not drawn) [Compound 639] were less than 20 µM, more than 200% and “A (EC1.5<1.0 μM)”.
The compound `O=C(Nc1cccc(OC[C@H](O)CO)n1)N1CCOc2ccc(-c3cccc(C(F)(F)F)c3)nc21` [Compound 570, (R)—N-(6-(2,3-dihydroxypropoxy)pyridin-2-yl)-6-(3-(trifluoromethyl)phenyl)-2H-pyrido[3,2-b][1,4]oxazine-4(3H)-carboxamide] came in with an IC50 in the experiment with TNF of less than 20 µM. Besides, on SIRT1, the Emax was more than 200% and the EC1.5 entry was “A (EC1.5<1.0 μM)”.
The corresponding values for `CC1(C)CN(C(=O)Nc2ccncc2)c2nc(-c3cccc(C(F)(F)F)c3)ccc2O1` [Compound 560, 2,2-dimethyl-N-(pyridin-4-yl)-6-(3-(trifluoromethyl)phenyl)-2H-pyrido[3,2-b][1,4]oxazine-4(3H)-carboxamide] are not below 20 µM, more than 200% and “A (EC1.5<1.0 μM)”.
Compound `CN1CCN(C(=O)Nc2ccncn2)c2nc(-c3cccc(C(F)(F)F)c3)ccc21` [Compound 535] returned an IC50 in the experiment with TNF not below 20 µM. Further, on SIRT1, the Emax is more than 200% and the EC1.5 entry is recorded as “A (EC1.5<1.0 μM)”.
Compound `O=C(Nc1cncc(OCC(O)CO)n1)N1CCOc2ccc(-c3cccc(C(F)(F)F)c3)nc21` (stereo not drawn) [Compound 696, N-(6-(2,3-dihydroxypropoxy)pyrazin-2-yl)-6-(3-(trifluoromethyl)phenyl)-2H-pyrido[3,2-b][1,4]oxazine-4(3H)-carboxamide] displayed an IC50 in the experiment on TNF of less than 20 µM. In addition, on SIRT1, the Emax is more than 200% and the EC1.5 result is “A (EC1.5<1.0 μM)”.
Compound `Cc1cc(C)nc(NC(=O)N2CCCc3ccc(-c4cccc(C(F)(F)F)c4)nc32)c1` [Compound 647] gave an IC50 with TNF not below 20 µM. Also, at SIRT1, the Emax was more than 200% and the EC1.5 result is “A (EC1.5<1.0 μM)”.
In turn, `Cc1cncc(NC(=O)N2CC(C)(C)Oc3ccc(-c4cccc(N5CC[C@H](F)C5)c4)nc32)c1` [Compound 660, (S)-6-(3-(3-fluoropyrrolidin-1-yl)phenyl)-2,2-dimethyl-N-(5-methylpyridin-3-yl)-2H-pyrido[3,2-b][1,4]oxazine-4(3H)-carboxamide] came in with a half-inhibitory concentration (IC50) in the experiment with TNF not below 20 µM. Also, at SIRT1, the Emax is more than 200% and the EC1.5 result was “A (EC1.5<1.0 μM)”.
Taken in the same sequence, the figures for `O=C(Nc1ccncc1)N1CCOc2ccc(-c3cccc(C(F)(F)F)c3)nc21` [Compound 501] were less than 20 µM, more than 200% and “A (EC1.5<1.0 μM)”.
Regarding `Cc1cc(-c2cccc(C(F)(F)F)c2)nc2c1OCCN2C(=O)Nc1ccncn1` [Compound 669], the IC50 in the experiment with TNF is not below 20 µM. On SIRT1, the Emax is more than 200% and the EC1.5 entry is reported as “A (EC1.5<1.0 μM)”.
`Cc1csc(NC(=O)N2CC(C)(C)Oc3ccc(-c4cccc(N5CCCC5)c4)nc32)n1` [Compound 606]: the IC50 with TNF was not below 20 µM. Besides, at SIRT1, the Emax is not above 200% and the EC1.5 entry is “A (EC1.5<1.0 μM)”.
With `Cc1cncc(NC(=O)N2CC(C)(C)Oc3ccc(-c4cccc(Cl)c4)nc32)c1` [Compound 600], the IC50 with TNF is less than 20 µM. For the same compound, on SIRT1, the Emax was more than 200% and the EC1.5 result is on record as “A (EC1.5<1.0 μM)”.
With `Cc1cc(NC(=O)N2CCCc3ccc(-c4cccc(C(F)(F)F)c4)nc32)cc(C)n1` [Compound 587], the concentration for half-maximal inhibition (IC50) in the experiment on TNF was less than 20 µM. On SIRT1, the Emax is more than 200% and the EC1.5 entry is given as “A (EC1.5<1.0 μM)”.
In the experiment on TNF, `Cc1cc(NC(=O)N2CC(C)(C)Oc3ccc(-c4cccc(F)c4)nc32)cc(C)n1` [Compound 592] yielded an IC50 not below 20 µM. Moreover, at SIRT1, the Emax is more than 200% and the EC1.5 entry is recorded as “A (EC1.5<1.0 μM)”.
In the experiment on TNF, `O=C(Nc1ccncc1)N1CCOc2ccc(-c3cccc(N4CCOCC4)c3)nc21` [Compound 557] returned an IC50 not below 20 µM. At SIRT1, the Emax was more than 200% and the EC1.5 result was “A (EC1.5<1.0 μM)”.
Regarding `Cc1cncc(NC(=O)N2CCOc3ccc(-c4cccc(C(F)(F)F)c4)nc32)c1` [Compound 551], in the experiment with TNF, the IC50 was not below 20 µM. In addition, on SIRT1, the Emax was more than 200% and the EC1.5 result is “A (EC1.5<1.0 μM)”.
`Cc1cc(C)nc(NC(=O)N2CCOc3c(C)cc(-c4cccc(C(F)(F)F)c4)nc32)c1` [Compound 672] yielded an IC50 in the experiment on TNF not below 20 µM. At SIRT1, the Emax is not above 200% and the EC1.5 result was “A (EC1.5<1.0 μM)”.
`O=C(Nc1cccnc1)N1CCCc2ccc(-c3cccc(Cl)c3)nc21` [Compound 653] returned an IC50 in the experiment with TNF not below 20 µM. Also, on SIRT1, the Emax was more than 200% and the EC1.5 entry is on record as “A (EC1.5<1.0 μM)”.
The compound `Cc1cc(NC(=O)N2CC(C)(C)Oc3ccc(-c4cccc(N5CC[C@H](F)C5)c4)nc32)cc(C)n1` [Compound 658] had an IC50 with TNF not below 20 µM. Further, at SIRT1, the Emax was more than 200% and the EC1.5 entry is given as “A (EC1.5<1.0 μM)”.
Taken in the same sequence, the figures for `O=C(Nc1ccnc(N2CCC2)c1)N1CCCOc2ccc(-c3cccc(N4CCCC4)c3)nc21` [Compound 611] were less than 20 µM, more than 200% and “A (EC1.5<1.0 μM)”.
With `O=C(Nc1ccnc(N2CCC2)c1)N1CCCc2ccc(-c3cccc(C(F)(F)F)c3)nc21` [Compound 589], the IC50 in the experiment on TNF was less than 20 µM. In addition, on SIRT1, the Emax was more than 200% and the EC1.5 result is given as “A (EC1.5<1.0 μM)”.
Compound `Cc1cc(NC(=O)N2CCOc3ccc(-c4ccc5c(c4)CCO5)nc32)cc(C)n1` [Compound 574] gave an IC50 with TNF not below 20 µM. Further, at SIRT1, the Emax is more than 200% and the EC1.5 entry is “A (EC1.5<1.0 μM)”.
On to `Cc1csc(NC(=O)N2CCCc3ccc(-c4cccc(Cl)c4)nc32)n1` [Compound 616], for which the IC50 with TNF is not below 20 µM. On SIRT1, the Emax was more than 200% and the EC1.5 result is recorded as “A (EC1.5<1.0 μM)”.
For `Cc1csc(NC(=O)N2CCOc3c(C)cc(-c4cccc(Cl)c4)nc32)n1` [Compound 684], the IC50 in the experiment on TNF was not below 20 µM. On SIRT1, the Emax is more than 200% and the EC1.5 result is on record as “A (EC1.5<1.0 μM)”.
On to `Cc1csc(NC(=O)N2CCCc3ccc(-c4cccc(F)c4)nc32)n1` [Compound 620], for which the IC50 in the experiment on TNF was less than 20 µM. In addition, at SIRT1, the Emax is more than 200% and the EC1.5 result was “A (EC1.5<1.0 μM)”.
Compound `Cc1csc(NC(=O)N2CC(C)(C)Oc3ccc(-c4cccc(N5CCOCC5)c4)nc32)n1` [Compound 675] came in with an IC50 in the experiment with TNF of less than 20 µM. Besides, at SIRT1, the Emax was more than 200% and the EC1.5 entry is listed as “A (EC1.5<1.0 μM)”.
Taken in the same sequence, the figures for `Cc1cncc(NC(=O)N2CCCOc3ccc(-c4cccc(Cl)c4)nc32)c1` [Compound 598] were less than 20 µM, more than 200% and “A (EC1.5<1.0 μM)”.
In the case of `O=C(Nc1ccnc(N2CCC2)c1)N1CCCc2ccc(-c3cccc(Cl)c3)nc21` [Compound 617], the IC50 in the experiment on TNF was less than 20 µM. Further, on SIRT1, the Emax is more than 200% and the EC1.5 result was “A (EC1.5<1.0 μM)”.
For `Cc1csc(NC(=O)N2CCOc3c(C)cc(-c4cccc(C(F)(F)F)c4)nc32)n1` [Compound 668, 8-methyl-N-(4-methylthiazol-2-yl)-6-(3-(trifluoromethyl)phenyl)-2H-pyrido[3,2-b][1,4]oxazine-4(3H)-carboxamide], the IC50 in the experiment with TNF was not below 20 µM. At SIRT1, the Emax is more than 200% and the EC1.5 result is reported as “A (EC1.5<1.0 μM)”.
Compound `Cc1cncc(NC(=O)N2CCOc3c(C)cc(-c4cccc(Cl)c4)nc32)c1` [Compound 688] gave an IC50 in the experiment on TNF not below 20 µM. On SIRT1, the Emax was more than 200% and the EC1.5 result was “A (EC1.5<1.0 μM)”.
Turning to `Cc1cc(-c2cccc(C(F)(F)F)c2)nc2c1OCCN2C(=O)Nc1ccnc(N2CCC2)c1` [Compound 683], the IC50 in the experiment on TNF was not below 20 µM. At SIRT1, the Emax is more than 200% and the EC1.5 result was “A (EC1.5<1.0 μM)”.
As for `Cc1cc(C)nc(NC(=O)N2CCN(C)c3ccc(-c4cccc(C(F)(F)F)c4)nc32)c1` [Compound 534], in the experiment on TNF, the IC50 is not below 20 µM. At SIRT1, the Emax is not above 200% and the EC1.5 entry was “A (EC1.5<1.0 μM)”.
For `Cc1cc(NC(=O)N2CC(C)(C)Oc3ccc(-c4cccc(Cl)c4)nc32)cc(C)n1` [Compound 602], the IC50 in the experiment on TNF is not below 20 µM. At SIRT1, the Emax was more than 200% and the EC1.5 result was “A (EC1.5<1.0 μM)”.
For the compound `O=C(Nc1ccccn1)N1CCOc2ccc(-c3cccc(C(F)(F)F)c3)nc21` [Compound 502], in the experiment with TNF, the half-inhibitory concentration (IC50) was not below 20 µM. Further, at SIRT1, the Emax was more than 200% and the EC1.5 entry is on record as “A (EC1.5<1.0 μM)”.
